The source of these data is ChEMBL document CHEMBL5126503, “Renieramycin-type alkaloids from marine-derived organisms: Synthetic chemistry, biological activity and structural modification” (Eur J Med Chem, 2021).

Values after ≈ are worked out from the molar mass of the structure shown.

In series [1] the test system is HCT-116. Briefly: Cytotoxicity against human HCT-116 cells assessed as cell growth inhibition. Format: functional, cell-based.
The test system of series [2] is QG-56. Briefly: Cytotoxicity against human QG-56 cells assessed as cell growth inhibition. The format is functional, cell-based.
The subject of a further series is T47D. Briefly: Cytotoxicity against human T47D cells assessed as cell growth inhibition. Format: functional, cell-based.
For another series, the system named is ASPC1. Briefly: Cytotoxicity against human ASPC1 cells assessed as cell growth inhibition. The format is functional, cell-based.
The test system of series [3] is HCT-116. In words: Cytotoxicity against human HCT-116 cells assessed as cell growth inhibition incubated for 4 days by Cell counting kit-8 assay. Format: functional, cell-based. The settings on record: HCT-116, 96 h. (In general: Tetrazolium dyes change colour on reduction, which living cells bring about.)
The test system of series [4] is QG-56. Briefly: Cytotoxicity against human QG-56 cells assessed as cell growth inhibition incubated for 4 days by Cell counting kit-8 assay. The format is functional, cell-based. To be noted: QG-56, 96 h.
Series [5] deals with DU-145. Briefly: Cytotoxicity against human DU-145 cells assessed as cell growth inhibition incubated for 4 days by Cell counting kit-8 assay. Format: functional, cell-based. The settings on record: DU-145, 96 h.
Series [6] deals with DU-145. In words: Cytotoxicity against human DU-145 cells assessed as cell growth inhibition. The format is functional, cell-based.
The test system of series [7] is A549. In words: Cytotoxicity against human A549 cells assessed as cell growth inhibition. Format: functional, cell-based.
In series [8] the test system is HL-60. In words: Cytotoxicity against human HL-60 cells assessed as cell growth inhibition. Format: functional, cell-based.
The nature of series [9]: Cytotoxicity against human HEK293 cells assessed as cell growth inhibition. The format is toxicity, cell-based.
In series [10] the test system is A549. In words: Cytotoxicity against human A549 cells assessed as cell growth inhibition by SRB assay. Format: functional, cell-based.
The test system of series [11] is HL-60. In words: Cytotoxicity against human HL-60 cells assessed as cell growth inhibition by MTT assay. Format: functional, cell-based.
The next series relates to Leishmania amazonensis. In words: Antileishmanial activity against Leishmania amazonensis promastigotes assessed as reduction on parasite growth by green fluorescent protein based microplate reader assay. Format: functional, organism-based.
The test system of the next series is NCI-H292. Briefly: Antiproliferative activity against human NCI-H292 cells assessed as cell growth inhibition incubated for 4 hrs by MTT assay. The format is functional, cell-based. The settings on record: NCI-H292, 4 h.

In the case of `C/C=C(/C)C(=O)OC[C@H]1c2c(c(OC(C)=O)c(C)c3c2OCO3)C[C@H]2[C@H]3C4=C(C[C@@H]([C@H](C#N)N12)N3C)C(=O)C(C)=C(OC)C4=O`, the IC50 amounted to 34 nM in the series with HCT-116 [1], 79 nM in the series on QG-56 [2], 10 nM with T47D and 120 nM in the series with ASPC1.
Consider `COC1=C(C)C(=O)C2=C(C1=O)[C@H](CO)N1[C@@H](C#N)[C@@H]3C(=O)c4c(O)c(C)c(OC)c(O)c4[C@H]([C@@H]1C2)N3C`, for which the IC50 in the series with HCT-116 [3], in the series on QG-56 [4] and in the series on DU-145 [5] was 448 nM throughout.
With `COC1=C(C)C(=O)C2=C(C1=O)[C@H](COC(C)=O)N1[C@@H](C2)CN(C)C[C@@H]1C#N`, the concentration for half-maximal inhibition (IC50) is 54 nM with HCT-116 [1], 220 nM in the series on QG-56 [2] and 990 nM in the series on DU-145 [6].
Take `C/C=C(/C)C(=O)OC[C@H]1C2=C(C[C@H]3[C@H]4C5=C(C(=O)C(C)=C(OC)C5=O)[C@H](O)[C@@H]([C@H](CC(C)=O)N13)N4C)C(=O)C(C)=C(O)C2=O`: the half-maximal inhibitory concentration (IC50) in the series on A549 [7] and in the series on HL-60 [8] was more than 100000 nM throughout.
For the compound `C/C=C(/C)C(=O)OC[C@H]1C2=C(C[C@H]3[C@H]4C5=C(C(=O)C(C)=C(OC)C5=O)[C@H](OCC)[C@@H]([C@H](CC(C)=O)N13)N4C)C(=O)C(C)=C(O)C2=O`, the IC50 in the series on A549 [7] and with HL-60 [8] was more than 100000 nM in each case.
Turning to `C/C=C(/C)C(=O)OC[C@H]1C2=C(C[C@H]3[C@H]4C5=C(C[C@@H]([C@H](CC(C)=O)N13)N4C)C(=O)C(C)=C(OC)C5=O)C(=O)C(C)=C(OC)C2=O`, the 50% inhibitory concentration (IC50) in series [9] is 7100 nM; in the series on A549 [10] it was more than 100000 nM; with HL-60 [11] it was more than 100000 nM.
For the compound `COC1=C(C)C(=O)C2=C(C1=O)[C@H]1CN(Cc3ccccc3)[C@@H](C#N)[C@H](C2)N1C`, the half-maximal inhibitory concentration (IC50) in the series with HCT-116 [3] and in the series on QG-56 [4] was 17 nM throughout.
With `COC1=C(C)C(=O)C2=C(C1=O)[C@@H]1[C@@H]3CC4=C(C(=O)C(OC)=C(C)C4=O)[C@H](CO)N3[C@@H](CC(C)=O)[C@H](C2=O)N1C`, the IC50 in series [9] is 1000 nM; in the series with A549 [7], 6200 nM; in the series on HL-60 [8] it was 2500 nM.
With `C/C=C(/C)C(=O)OC[C@H]1C2=C(C[C@H]3[C@H]4C5=C(C(=O)C(C)=C(OC)C5=O)[C@H](O)[C@@H](CN13)N4C)C(=O)C(C)=C(OC)C2=O`, in the series with Leishmania amazonensis, the IC50 came to 0.2 µg/mL (≈ 0.353 µM).
Turning to `COC1=C(C)C(=O)C2=C(C1=O)[C@@H]1[C@@H]3CC4=C(C(=O)C(OC)=C(C)C4=O)[C@H](COC(=O)CNC(=O)OC(C)(C)C)N3[C@@H](C#N)[C@H](C2)N1C`, the IC50 with NCI-H292 stood at 3.56 nM.
Turning to `C/C=C(/C)C(=O)OC[C@H]1c2c(c(O)c(C)c3c2OCO3)C[C@H]2[C@H]3C4=C(C[C@@H]([C@H](C#N)N12)N3C)C(=O)C(C)=C(OC)C4=O`, the half-inhibitory concentration (IC50) in the series on HCT-116 [1] came out at 39 nM; with QG-56 [2], 77 nM; with T47D, 4.7 nM; in the series on ASPC1, 98 nM.

The term IC50 denotes the concentration that inhibits the measured activity by half.
